According to patent US10233177B2, “TRPV1 vanilloid receptor antagonists with a bicyclic portion” (Serentrix LLC, priority 2010, dated 2019):
Where two headings read alike, the source gives them in different places.

Key:
TRPV1 = TRPV1 (Rattus norvegicus (Rat), UniProt O35433); assay: Ca2+ fluorescence measurements in cultured rat dorsal root ganglia neurons (capsaicin-induced calcium uptake); type: cell-based; settings: rat DRG neurons; for inhibition at 0.3 µM: DRG neuron
[1] = tested on: CCI-induced mechanical hyperalgesia; assay: CCI-induced mechanical hyperalgesia (Randall-Selitto paw pressure); type: in vivo; settings: rat CCI, 30 μmol/kg oral
Description: CCI-Induced Mechanical Hyperalgesia
Male SD rats (Charles River, Italy) weighing 250 g were anaesthetized with sodium pentobarbital (60 mg/kg, intraperitoneal (i.p.), 0.1 ml/10 g) and, under a dissecting microscope, the right common sciatic nerve was exposed at the level of the mid thigh and, proximal to the trifurcation of the nerve; four ligatures (4/0 chromic silk, Ethicon) were loosely tied around it, at about 0.5 mm spacing, until they elicited a brief twitch in the respective hind, taking care to preserve epineural circulation. Sham-operated animals (sciatic exposure without ligation) were used as controls. 14 days after the surgery, mechanical hyperalgesia was assessed using an analgesimeter (Ugo Basile, Italy, Randall-Selitto analgesic apparatus). This device generated a mechanical force on the affected paw and the nociceptive threshold was defined as the force (in g) at which the rat withdraws the paw (with a cut-off of 450 g). Two baseline measurement values were obtained 75 and 45 min before the actual test. After the second baseline measurement, animals were randomly allocated to the different treatment groups. Paw pressure test was performed 0, 75, 120, 165, 210 and 300 min after the oral administration of the compounds. All tested compounds were orally administrated (30 μmol/kg/10 ml) to rats by gavage.

[2] = tested on: CFA-induced tactile allodynia; assay: CFA-induced tactile allodynia in rats (von Frey filaments); type: in vivo; settings: rat, 30 μmol/kg oral
Description: CFA-Induced Tactile Allodynia in Rats
Male SD rats (Charles River, Italy) weighing 100 to 250 g were put into a clean plastic cage on an elevated glass plate for 30 min before the test. This lets the animals accommodate to their new environment before testing. Complete Freund's adjuvant (CFA, 50 μl) was injected into the plantar surface of the right hind paw. Tactile stimulation was performed with von Frey filaments (from 0.07 to 26 g). All antagonists were orally administered 22 hours after to the CFA administration. Von Frey filaments were applied 30, 60, 120, 180, 240, 300 and 360 min after compound administrations. Median 50% (EG50) threshold of von Frey filaments was calculated by using the up-down method as previously described. All tested compounds were suspended in 0.5% Methocel and 2.5% Tween80 and orally administrated (30 μmol/kg/10 ml) to rats by gavage 24 hours after the CFA treatment. CFA was injected into the plantar surface of a rat's hind paw at a fixed dose of 50 μl by the use of a micro syringe.

[3] = tested on: CFA-induced thermal hyperalgesia; assay: CFA-induced thermal hyperalgesia in rats (Hargreaves' test); type: in vivo; settings: rat, 30 μmol/kg oral; read-out: reversal of CFA-induced thermal hyperalgesia (maximal reversal activity / % of reversion)
Source text: CFA-Induced Thermal Hyperalgesia in Rats
This method was used for the determination of acute nociceptive thermal threshold and combines a chemical stimulus and heat for measuring pain sensitivity. Male SD rats (Charles River, Italy) weighing 100 to 250 gr. were used. Anti-hyperalgesic effects were investigated by using the Hargreaves' test. Complete Freund's Adjuvant (CFA; Sigma, USA) was used to induce thermal hyperalgesia. CFA contains killed Mycobacterium tuberculosis and is designed to provide continuous release of antigens necessary for stimulating a strong, persistent immune response. This effect causes the reduction of the hind paw withdrawal response latency induced by heat during the Hargreaves' test. Thermal stimulation was performed 30, 60, 120 and 180 (240 min only if needed) minutes after the oral administration of the antagonists. During the CFA-induced thermal hyperalgesia experiments two different solubilization protocols were used: when items presented an amino group, a pH=2 aqueous solution of HCl and 2.5% Tween80 was used; otherwise molecules were suspended in 0.5% Methocel and 2.5% Tween80. Compounds were orally administrated (30 μmol/kg/10 ml) to rats 24 hours after the CFA treatment. CFA was injected into the plantar surface of a rat's hind paw at a fixed dose of 50 μl by the use of a micro syringe.

[4] = Table 1, formula IA-C, 300 nM against calcium uptake induced by 30 nM capsaicin, read-out: % inhibition at 300 nM
[5] = capsaicin-induced calcium uptake, read-out: inhibition of the calcium uptake
[6] = 300 nM, read-out: abolition of capsaicin response at 300 nM
[7] = Table 1, against capsaicin-evoked [Ca2+]i mobilization, read-out: IC50
[8] = read-out: IC50 against capsaicin-evoked [Ca2+]i mobilization

Chain of TRPV1 (O35433 whole entry): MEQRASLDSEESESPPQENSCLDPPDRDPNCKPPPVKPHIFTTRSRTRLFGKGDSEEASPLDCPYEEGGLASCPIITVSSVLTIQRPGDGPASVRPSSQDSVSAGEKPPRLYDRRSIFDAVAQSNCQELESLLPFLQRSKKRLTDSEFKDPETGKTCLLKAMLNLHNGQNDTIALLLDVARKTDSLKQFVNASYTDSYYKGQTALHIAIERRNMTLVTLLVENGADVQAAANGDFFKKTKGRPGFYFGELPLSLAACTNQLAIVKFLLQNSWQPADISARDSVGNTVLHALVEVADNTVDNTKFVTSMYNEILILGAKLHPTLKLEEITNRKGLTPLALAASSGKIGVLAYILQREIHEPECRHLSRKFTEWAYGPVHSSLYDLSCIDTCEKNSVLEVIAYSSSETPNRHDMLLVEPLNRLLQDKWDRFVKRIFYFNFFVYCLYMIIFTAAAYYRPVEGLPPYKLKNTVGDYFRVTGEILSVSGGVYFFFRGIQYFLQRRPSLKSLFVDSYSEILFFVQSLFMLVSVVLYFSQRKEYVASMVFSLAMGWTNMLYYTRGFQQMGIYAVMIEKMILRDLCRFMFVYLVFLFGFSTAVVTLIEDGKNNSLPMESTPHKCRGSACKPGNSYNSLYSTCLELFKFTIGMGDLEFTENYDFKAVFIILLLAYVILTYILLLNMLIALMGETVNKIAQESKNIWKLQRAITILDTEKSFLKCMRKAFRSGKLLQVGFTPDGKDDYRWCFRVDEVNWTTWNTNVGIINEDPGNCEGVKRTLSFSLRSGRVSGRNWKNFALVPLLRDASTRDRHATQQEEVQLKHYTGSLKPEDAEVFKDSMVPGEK

Row | SMILES | inhibition at 0.3 µM (TRPV1; [4]) | inhibition at 0.3 µM (TRPV1; [5]) | inhibition at 0.3 µM (TRPV1; [6]) | IC50 (TRPV1; [7]) | IC50 (TRPV1; [8]) | anti-hyperalgesic activity (in words) [1] | reversal of hyperalgesia within the first 2 hours [1] | duration of effect on CFA-induced tactile allodynia, post-treatment [2] | reversal of CFA-induced tactile allodynia [2] | inhibition in vivo at 30 µmol/kg [3]
1 | O=C(NCc1ccc(C(F)(F)F)cc1)Nc1cccc2[nH]c(=O)[nH]c12 [Example 1, 1-(4-(trifluoromethyl)benzyl)-3-(2,3-dihydro-2-oxo-1H-benzo[d]imidazol-4-yl)urea] | 84% | > 80% |  |  |  | relevant and long lasting anti-hyperalgesic activity | at least 80% |  |  | 
2 | O=C(NCc1ccc(C(F)(F)F)cc1N1CCCC1)Nc1cccc2[nH]c(=O)[nH]c12 [Example 5, 1-(4-(trifluoromethyl)-2-(pyrrolidin-1-yl)benzyl)-3-(2,3-dihydro-2-oxo-1H-benzo[d]imidazol-4-yl)urea] | 100% | > 80% | ~100% | 1 nM | 1 nM | relevant and long lasting anti-hyperalgesic activity | at least 80% | up to 240 min | 60% | 53%
3 | O=C(NCc1ccc(C(F)(F)F)cc1N1CCCCC1)Nc1cccc2[nH]c(=O)[nH]c12 [Example 6, 1-(4-(trifluoromethyl)-2-(piperidin-1-yl)benzyl)-3-(2,3-dihydro-2-oxo-1H-benzo[d]imidazol-4-yl)urea] | 95% | > 80% | ~100% | 0.51 nM | 0.51 nM | relevant and long lasting anti-hyperalgesic activity | at least 80% |  |  | 
4 | O=C(NCc1ccc(Cl)cc1N1CCCC1)Nc1cccc2[nH]c(=O)[nH]c12 [Example 12, 1-(4-chloro-2-(pyrrolidin-1-yl)benzyl)-3-(2,3-dihydro-2-oxo-1H-benzo[d]imidazol-4-yl)urea] | 88% | > 80% |  | 6 nM | 6 nM |  |  | up to 300 min | 62% | 65%
5 | O=C(NCc1ccc(Cl)cc1N1CCCCC1)Nc1cccc2[nH]c(=O)[nH]c12 [Example 13, 1-(4-chloro-2-(piperidin-1-yl)benzyl)-3-(2,3-dihydro-2-oxo-1H-benzo[d]imidazol-4-yl)urea] | 96% | > 80% | ~100% | 1.8 nM | 1.8 nM | relevant and long lasting anti-hyperalgesic activity | at least 80% |  |  | 60%
6 | O=C(NCc1ccc(C(F)(F)F)o1)Nc1cccc2[nH]c(=O)[nH]c12 [Example 23, 1-(5-(trifluoromethyl-furan-2-yl)-methyl)-3-(2,3-dihydro-2-oxo-1H-benzo[d]imidazol-4-yl)urea] | 82% | > 80% |  | 108 nM |  |  |  |  |  | 46%
7 | O=C1COc2c(cccc2NC(=O)NCc2ccc(C(F)(F)F)cc2N2CCCC2)N1 [Example 47, 1-(4-(trifluoromethyl)-2-(pyrrolidin-1-yl)benzyl)-3-(3,4-dihydro-3-oxo-2H-benzo[b][1,4]oxazin-8-yl)urea] | 100% | > 80% | ~100% | 0.7 nM | 0.7 nM |  |  |  |  | 46%
8 | O=C1COc2c(cccc2NC(=O)NCc2ccc(C(F)(F)F)cc2N2CCCCC2)N1 [Example 48, 1-(4-(trifluoromethyl)-2-(piperidin-1-yl)benzyl)-3-(3,4-dihydro-3-oxo-2H-benzo[b][1,4]oxazin-8-yl)urea] | 100% | > 80% | ~100% | 0.13 nM | 0.13 nM |  |  |  |  | 45%

Now from value to molecule, other results behind:

Row | inhibition at 0.3 µM (TRPV1; [4]) | inhibition at 0.3 µM (TRPV1; [5]) | inhibition at 0.3 µM (TRPV1; [6]) | IC50 (TRPV1; [7]) | IC50 (TRPV1; [8]) | SMILES | anti-hyperalgesic activity (in words) [1] | reversal of hyperalgesia within the first 2 hours [1] | duration of effect on CFA-induced tactile allodynia, post-treatment [2] | reversal of CFA-induced tactile allodynia [2] | inhibition in vivo at 30 µmol/kg [3]
9 | 68% |  |  |  |  | O=C1COc2c(cccc2NC(=O)NCc2ccc(Cl)cc2)N1 [Example 49, 1-(4-chlorobenzyl)-3-(3,4-dihydro-3-oxo-2H-benzo[b][1,4]oxazin-8-yl)urea] | relevant and long lasting anti-hyperalgesic activity | at least 80% |  | 72% | 52%
10 | 100% | > 80% | ~100% | 0.1 nM | 1.8 nM | O=C1COc2c(cccc2NC(=O)NCc2ccc(Cl)cc2N2CCCC2)N1 [Example 51, 1-(4-chloro-2-(pyrrolidin-1-yl)benzyl)-3-(3,4-dihydro-3-oxo-2H-benzo[b][1,4]oxazin-8-yl)urea] |  |  | shorter duration | 61% | 30%
11 | 79% |  |  |  |  | Cc1ccc(CNC(=O)Nc2cccc3c2OCC(=O)N3)c(OC(C)C)n1 [Example 85, 1-[(2-isopropoxy-6-methyl-3-pyridyl)methyl]-3-(3-oxo-4H-1,4-benzoxazin-8-yl)urea] |  |  |  |  | 
12 | 100% | > 80% | ~100% | 17 nM |  | CN(C)c1nc(C(F)(F)F)ccc1CNC(=O)Nc1cccc2c1OCC(=O)N2 [Example 86, 1-[[2-dimethylamino-6-(trifluoromethyl)-3-pyridyl]methyl]-3-(3-oxo-4H-1,4-benzoxazin-8-yl)urea] |  |  |  |  | 
13 | 100% | > 80% | ~100% | 9 nM |  | O=C1COc2c(cccc2NC(=O)NCc2ccc(C(F)(F)F)nc2N2CCCC2)N1 [Example 87, 1-(3-oxo-4H-1,4-benzoxazin-8-yl)-3-[[2-pyrrolidin-1-yl-6-(trifluoromethyl)-3-pyridyl]methyl]urea] |  |  |  |  | 
14 | 75% |  |  |  |  | O=C1COc2c(cccc2NC(=O)NCc2ccc(C(F)(F)F)cc2-n2ccnc2)N1 [Example 88, 1-[[2-(imidazol-1-yl)-4-(trifluoromethyl)phenyl]methyl]-3-(3-oxo-4H-1,4-benzoxazin-8-yl)urea] |  |  |  |  | 
15 | 92% | > 80% |  | 19.8 nM |  | CC(C)(C)c1ccc(CNC(=O)Nc2cccc3c2OCC(=O)N3)cc1 [Example 89, 1-[(4-tert-butylphenyl)methyl]-3-(3-oxo-4H-1,4-benzoxazin-8-yl)urea] |  |  |  |  | 
16 | 47% |  |  |  |  | Cc1ccc(CNC(=O)Nc2cccc3c2OCC(=O)N3)c(N2CCCC2)c1 [Example 90, 1-[(4-methyl-2-pyrrolidin-1-yl-phenyl)methyl]-3-(3-oxo-4H-1,4-benzoxazin-8-yl)urea] |  |  |  |  | 
17 | 40% |  |  |  |  | CN(C)CCOc1nc(C(F)(F)F)ccc1CNC(=O)Nc1cccc2c1OCC(=O)N2 [Example 91, 1-[[2-(2-dimethylaminoethoxy)-6-(trifluoromethyl)-3-pyridyl]methyl]-3-(3-oxo-4H-1,4-benzoxazin-8-yl)urea] |  |  |  |  | 
18 | 12% |  |  |  |  | CN(C)CCOc1cc(C(F)(F)F)ccc1CNC(=O)Nc1cccc2c1OCC(=O)N2 [Example 92, 1-[[2-(2-dimethylaminoethoxy)-4-(trifluoromethyl)phenyl]methyl]-3-(3-oxo-4H-1,4-benzoxazin-8-yl)urea] |  |  |  |  | 
